This test deals with TMK-1 human gastric carcinoma cells implanted into the stomachs of nude mice. The test can be described thus: Treatment of established human gastric cancer tumors growing in murine gastric walls; Lyve-1 immunohistochemical determination of the area of lymphatic vessels. In kind it is in vivo, athymic BALB/c nude mice. The conditions noted are these: TMK-1 orthotopic gastric tumors in nude mice, imatinib mesylate 50 mg/kg daily oral gavage for 28 days, started 14 days after implantation, versus control (water), P<0.05. An excerpt:
Animals and orthotopic implantation of tumor cells. Male athymic BALB/c nude mice (Charles River Japan, Tokyo) were maintained under specific pathogen-free conditions and used at 5 weeks of age. Subconfluent gastric cancer cells (TMK-1 or KKLS cells) to be used for implantation were harvested by brief treatment with 0.25% trypsin and 0.02% ethylenediamine tetraacetic acid, and then re-suspended to a final concentration of 2.0×10^7 cells/mL Hanks' solution. With the use of a 30-gauge needle attached to a 1-mL syringe, cells (1×10^6 cells in 50 μl) were implanted into the gastric walls in the nude mice under observation with a zoom stereomicroscope. […]
Treatment of established human gastric cancer tumors growing in murine gastric walls. Fourteen days after orthotopic implantation of TMK-1 cells, mice (n=10 each group) were randomly assigned to receive one of the following two treatments daily oral gavage of water (control group) or daily oral gavage of imatinib mesylate (50 mg/kg, optimal biological dose as determined previously (Hwang R F, et al. Clin Cancer Res 2003; 9: 6534-44) The treatments continued for 28 days. All therapy experiments were performed twice. The mice bearing orthotopic tumors were euthanised by methophane on day 29. For immunohistochemistry, the tumor tissues were fixed in formalin and embedded in paraffin. […]

Structures can show the parent of a compound that is named as a salt.

`Cc1ccc(NC(=O)c2ccc(CN3CCN(C)CC3)cc2)cc1Nc1nccc(-c2cccnc2)n1` [imatinib mesylate]: the “area of lymphatic vessels in tumors (Lyve-1 immunohistochemistry)” value is listed as “reduced areas of lymphatic vessels”. The “area of lymphatic vessels in tumors (Lyve-1 immunohistochemistry)” value (listed as imatinib) is listed as “significantly reduced the area of lymphatic vessels”.

For the origin of these results see patent publication US9101630B2, “Use of PDGF-R inhibitors for the treatment of lymph node metastasis of gastric cancer” (priority 2010, dated 2015).
